Source: US6831080B2, “Cinnamide derivatives as KCNQ potassium channel modulators” (Bristol-Myers Squibb Company, priority 2001, dated 2004)

Assays:
mKCNQ2 channels = biological target: T1, mKCNQ2 channels (Mus musculus, UniProt Q9Z351); assay: Whole-cell patch-clamp, HEK 293 stable cell line expressing mKCNQ2 channels; format: cell-based; conditions: HEK 293 mKCNQ2, Hill fit; for EC50: @ −40 mV; for Emax: HEK293, read-out: Imax (%)
T1 construct: expressed in transfected cells
Procedure: Whole-cell patch-clamp recordings were made from an HEK 293 stable cell line expressing mKCNQ2 channels, maintained in culture for 1-2 days. Patch pipettes had initial resistances of 2.5-4 MΩ. Currents were recorded with an EPC-9 amplifier (HEKA, Lambrecht, Germany) controlled with software (Pulse, HEKA) run on a standard lab PC. Series resistance compensation was used during current recording, and set at 80%. The series resistance (R) and cell capacitance (C) were determined electronically by subtracting the capacitive currents at the onset and offset of a 5 mV voltage step. The cancellation of whole-cell capacitance transients was virtually complete in all cells. Analog current signals were low-pass filtered at 2.9 kHz using a four-pole Bessel filter −3 dB) and stored on a local network server computer at a sampling rate of […]. All recordings were performed at room temperature (20-22° C.). The pipette solution contained (mM): KCl, 150; CaCl2, 2.5; EGTA, 5; MgCl2, 1; HEPES, 10; pH to 7.3 with KOH, and Osmolality of 290-300 mOsm. The extracellular solution contained (mM): NaCl, 140; KCl, 2.5; CaCl2, 2.5; MgCl2, 1; glucose, 10; HEPES, 10; pH to 7.3 with NaOH, and Osmolality of 305-310 mOsm
Concentration response data were generated by measuring the difference in the steady-state amplitude of current in the presence of compound at the end of a 600 ms voltage-clamp step from a holding potential of −80 mV. The concentration-response data were fitted with Hill-type equations: […]
where I is the steady-state current at a given concentration of agonist [A]; and Imax, EC50 and nH are parameters estimated from the curve fit. In some cases the concentration-response data were fitted with equations consisting of the sum of two Hill-type components. Current-voltage (I/V) relationships for agonist-evoked currents were obtained by performing 600 ms voltage steps (−110 mV to +40 mV) in the absence and presence of agonist.

T1 sequence (Q9Z351 whole entry): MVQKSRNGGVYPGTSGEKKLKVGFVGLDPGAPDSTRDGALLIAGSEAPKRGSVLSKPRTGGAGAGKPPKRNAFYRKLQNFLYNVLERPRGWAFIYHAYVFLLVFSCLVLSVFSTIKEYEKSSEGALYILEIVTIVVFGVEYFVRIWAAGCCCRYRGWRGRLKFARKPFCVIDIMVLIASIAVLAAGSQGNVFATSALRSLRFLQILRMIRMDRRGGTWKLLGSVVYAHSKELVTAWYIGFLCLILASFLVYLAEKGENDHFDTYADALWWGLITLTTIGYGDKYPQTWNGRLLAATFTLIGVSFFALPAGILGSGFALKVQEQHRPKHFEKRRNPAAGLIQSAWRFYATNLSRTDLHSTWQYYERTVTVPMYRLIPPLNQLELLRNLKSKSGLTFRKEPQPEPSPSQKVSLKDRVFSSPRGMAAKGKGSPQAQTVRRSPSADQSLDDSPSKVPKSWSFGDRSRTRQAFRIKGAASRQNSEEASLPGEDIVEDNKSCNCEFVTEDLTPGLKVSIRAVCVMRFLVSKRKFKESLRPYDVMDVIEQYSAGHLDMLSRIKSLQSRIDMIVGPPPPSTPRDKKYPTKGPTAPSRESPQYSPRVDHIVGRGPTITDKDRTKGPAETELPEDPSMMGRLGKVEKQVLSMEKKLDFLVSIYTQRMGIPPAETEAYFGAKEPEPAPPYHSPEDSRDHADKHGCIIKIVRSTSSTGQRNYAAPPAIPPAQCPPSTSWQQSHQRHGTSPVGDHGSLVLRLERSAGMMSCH

SMILES | melting point | EC50 (mKCNQ2 channels) [µM] | Emax (mKCNQ2 channels) [%]
CC(NC(=O)/C=C/c1ccccc1F)c1ccc2c(c1)NCCC2 (racemic) | 171 to 173 °C |  | 
CC(NC(=O)/C=C/c1cc(F)ccc1F)c1ccc2c(c1)OCO2 (racemic) [Example 38, (±)-N-(1-Benzo[1,3]-diox-ol-5-yl-ethyl)-3-(2,5-di-fluoro-phenyl)-acrylamide] |  | 4.2 | 550
CC(NC(=O)/C=C/c1ccccc1Cl)c1ccc2c(c1)OCO2 (racemic) [Example 46, (±)-N-(1-Benzo[1,3]-diox-ol-5-yl-ethyl)-3-(2-chlor-o-phenyl)-acrylamide] |  | 0.0006 | 260
CC(NC(=O)/C=C/c1cccc(F)c1)c1ccc2c(c1)NCCC2 (racemic) [Example 232, (±)-3-(3-Fluoro-phenyl)-N-[1-(1,2,3,4-tetrahydro-quinolin-7-yl)ethyl]-acrylamide] | 130 to 132 °C (dec.) |  | 
CC(NC(=O)/C=C/c1ccccc1)c1ccc2c(c1)NCCC2 (racemic) [Example 233, (±)-3-phenyl-N-[1-(1,2,3,4-tetrahydro-quinolin-7-yl)ethyl]-acrylamide] | 144 to 146 °C |  | 
CC(NC(=O)/C=C/c1cc(F)ccc1F)c1ccc2c(c1)NCCC2 (racemic) [Example 234, (±)-3-(2,5-difluoro-phenyl)-N-[1-(1,2,3,4-tetrahydro-quinolin-7-yl)ethyl]-acrylamide] | 139 to 141 °C |  | 
CC(NC(=O)/C=C/c1ccc(F)cc1)c1ccc2c(c1)NCCC2 (racemic) [Example 235, (±)-3-(4-fluoro-phenyl)-N-[1-(1,2,3,4-tetrahydro-quinolin-7-yl)ethyl]-acrylamide] | 125 to 127 °C (dec.) |  | 
CC(NC(=O)/C=C/c1ccccc1F)c1ccc2c(c1)N(C)CCC2 (racemic) [Example 236, (±)-3-(2-fluoro-phenyl)-N-[1-(1-methyl-1,2,3,4-tetrahydro-quinolin-7-yl)ethyl]acrylamide] | 60 to 63 °C |  | 
CC(NC(=O)/C=C/c1cc(F)ccc1F)c1ccc2c(c1)N(C)CCC2 (racemic) [Example 237, (±)-3-(2,5-difluoro-phenyl)-N-[1-(1-methyl-1,2,3,4-tetrahydro-quinolin-7-yl)ethyl]acrylamide] | 52 to 55 °C |  | 
CC(NC(=O)/C=C/c1ccccc1)c1ccc2c(c1)N(C)CCC2 (racemic) [Example 238, (±)-N-[1-(1-methyl-1,2,3,4-tetrahydro-quinolin-7-yl)-ethyl]-3-phenyl-acrylamide] | 166 °C (dec.) |  | 
CC(NC(=O)/C=C/c1cccc(F)c1)c1ccc2c(c1)N(C)CCC2 (racemic) [Example 239, (±)-3-(3-fluoro-phenyl)-N-[1-(1-methyl-1,2,3,4-tetrahydro-quinolin-7-yl)ethyl]acrylamide] | 60 to 63 °C |  | 
CC(NC(=O)/C=C/c1ccc(F)cc1)c1ccc2c(c1)N(C)CCC2 (racemic) [Example 240, (±)-3-(4-fluoro-phenyl)-N-[1-(1-methyl-1,2,3,4-tetrahydro-quinolin-7-yl)ethyl]acrylamide] | 183 to 185 °C |  | 
CCN1CCCc2ccc(C(C)NC(=O)/C=C/c3ccccc3)cc21 (racemic) [Example 241, (±)-N-[1-(1-ethyl-1,2,3,4-tetrahydro-quinolin-7-yl)-ethyl]-3-phenyl-acrylamide] | 50 to 52 °C |  | 
CCN1CCCc2ccc(C(C)NC(=O)/C=C/c3cc(F)ccc3F)cc21 (racemic) [Example 242, (±)-3-(2,5-difluoro-phenyl)-N-[1-(1-ethyl-1,2,3,4-tetrahydro-quinolin-7-yl)ethyl]acrylamide] | 50 to 53 °C | 1.4 | 
CC(=O)N1CCCc2ccc(C(C)NC(=O)/C=C/c3ccccc3)cc21 (racemic) [Example 243, (±)-N-[1-(1-acetyl-1,2,3,4-tetrahydro-quinolin-7-yl)-ethyl]-3-phenyl-acrylamide] | 65 to 68 °C |  | 
CCN1CCOc2ccc(C(C)NC(=O)/C=C/c3ccccc3F)cc21 (single isomer, unassigned) [Example 214, 3-(2-fluoro-phenyl)-N-[1-(4-ethyl-3,4-dihydro-2H-benzo[1,4]oxazin-6-yl)ethyl]-acrylamide] |  | 0.0009 | 260
CC(NC(=O)/C=C/c1ccccc1F)c1ccc2c(c1)N(CC1CC1)CCO2 (single isomer, unassigned) [Example 215, 3-(2-fluoro-phenyl)-N-[1-(4-cyclopropylmethyl-3,4-dihydro-2H-benzo[1,4]oxazin-6-yl)ethyl]-acrylamide] |  | 5.4 | 
C[C@H](NC(=O)/C=C/c1ccc(Cl)cc1F)c1cccc(N2CCOCC2)c1 [Example 97, (S)-3-(4-Chloro-2-fluoro-phen-yl)-N-[1-(3-morpho-lin-4-yl-phenyl)-eth-yl]-acrylamide] |  | 2.9 | 
CC(NC(=O)/C=C/c1cc(F)cc(F)c1)c1ccc2c(c1)CCCN2 (stereo not shown) [Example 248, 3-(3,5-difluoro-phenyl)-N-[1-(1,2,3,4-tetrahydro-quinolin-6-yl)-ethyl]acrylamide] | 180 °C (dec.) | 5 | 290
CC(NC(=O)/C=C/c1ccccc1)c1ccc2c(c1)CCCN2 (stereo not shown) [Example 249, 3-phenyl-N-[1-(1,2,3,4-tetrahydro-quinolin-6-yl)ethyl]acrylamide] | 64 to 67 °C |  | 
CC(NC(=O)/C=C/c1ccc(F)c(F)c1)c1ccc2c(c1)CCCN2 (stereo not shown) [Example 250, 3-(3,4-difluoro-phenyl)-N-[1-(1,2,3,4-tetrahydro-quinolin-6-yl)-ethyl]acrylamide] | 156 °C (dec.) |  | 
CC(NC(=O)/C=C/c1ccccc1F)c1ccc2c(c1)CCCN2 (stereo not shown) [Example 251, 3-(2-fluoro-phenyl)-N-[1-(1,2,3,4-tetrahydro-quinolin-6-yl)ethyl]acrylamide] | 149 to 151 °C (dec.) |  | 
CC(NC(=O)/C=C/c1cc(F)ccc1F)c1ccc2c(c1)CCCN2 (stereo not shown) [Example 252, 3-(2,5-difluoro-phenyl)-N-[1-(1,2,3,4-tetrahydro-quinolin-6-yl)-ethyl]acrylamide] | 55 to 58 °C |  | 
CC(NC(=O)/C=C/c1c(F)cccc1F)c1ccc2c(c1)CCCN2 (stereo not shown) [Example 253, 3-(2,6-difluoro-phenyl)-N-[1-(1,2,3,4-tetrahydro-quinolin-6-yl)ethyl]acrylamide] | 77 to 80 °C |  | 
CC(NC(=O)/C=C/c1cccc(F)c1)c1ccc2c(c1)CCCN2 (stereo not shown) [Example 254, 3-(3-fluoro-phenyl)-N-[1-(1,2,3,4-tetrahydro-quinolin-6-yl)ethyl]acrylamide] | 172 to 174 °C |  | 
CC(NC(=O)/C=C/c1ccc(F)cc1)c1ccc2c(c1)CCCN2 (stereo not shown) [Example 255, 3-(4-fluoro-phenyl)-N-[1-(1,2,3,4-tetrahydro-quinolin-6-yl)ethyl]acrylamide] | 140 to 143 °C |  | 
CC(NC(=O)/C=C/c1ccccc1)c1ccc2c(c1)CCCN2C (stereo not shown) [Example 256, N-[1-(1-methyl-1,2,3,4-tetrahydro-quinolin-6-yl)-ethyl]-3-phenyl-acrylamide] | 65 to 68 °C |  | 
CC(NC(=O)/C=C/c1cc(F)ccc1F)c1ccc2c(c1)CCCN2C (stereo not shown) [Example 257, 3-(2,5-difluoro-phenyl)-N-[1-(1-methyl-1,2,3,4-tetrahydro-quinolin-6-yl)ethyl]acrylamide] | 51 to 55 °C |  | 
